# Measurements: patent publication US5273982A, “Acetic acid derivatives” (Hoffmann-La Roche Inc., priority 1990, dated 1993)
# Target: T1, fibrinogen receptor, glycoprotein IIb/IIIa (Homo sapiens, UniProt P05106+P08514)
# T1 construct: obtained from Triton X-100 extracts of human blood platelets; from tissue; host or cells: human blood platelets (Triton X-100 extract)
# Assay: Inhibition of fibrinogen binding to immobilised fibrinogen receptor glycoprotein IIb/IIIa (ELISA)
# Conditions: glycoprotein IIb/IIIa from human blood platelets, bound to microtiter plates, read-out: IC50 (concentration required to inhibit the binding of fibrinogen to the immobilised receptor by 50%)
# Excerpt: The inhibition of fibrinogen […] on the fibrinogen receptor, glycoprotein IIb/IIIa, can be detected as follows:
# Glycoprotein IIb/IIIa is obtained from Triton X-100 extracts of human blood platelets and purified by lectin affinity chromatography (Analytical Biochemistry 151, 1985, 169-177) and chromatography on an Arg-Gly-Asp-Ser affinity column (Science 231, 1986, 1559-62). The receptor protein thus obtained is bound to microtiter plates. The specific binding of fibrinogen to the immobilized receptor is determined with the aid of an ELISA system ("enzyme-linked immunosorbent assay"). The IC50 values below correspond to the concentration of the test substance which is required in order to inhibit the binding of fibrinogen to the immobilised receptor by 50%: […]
# T1 sequence (P08514 32-887 limits assumed): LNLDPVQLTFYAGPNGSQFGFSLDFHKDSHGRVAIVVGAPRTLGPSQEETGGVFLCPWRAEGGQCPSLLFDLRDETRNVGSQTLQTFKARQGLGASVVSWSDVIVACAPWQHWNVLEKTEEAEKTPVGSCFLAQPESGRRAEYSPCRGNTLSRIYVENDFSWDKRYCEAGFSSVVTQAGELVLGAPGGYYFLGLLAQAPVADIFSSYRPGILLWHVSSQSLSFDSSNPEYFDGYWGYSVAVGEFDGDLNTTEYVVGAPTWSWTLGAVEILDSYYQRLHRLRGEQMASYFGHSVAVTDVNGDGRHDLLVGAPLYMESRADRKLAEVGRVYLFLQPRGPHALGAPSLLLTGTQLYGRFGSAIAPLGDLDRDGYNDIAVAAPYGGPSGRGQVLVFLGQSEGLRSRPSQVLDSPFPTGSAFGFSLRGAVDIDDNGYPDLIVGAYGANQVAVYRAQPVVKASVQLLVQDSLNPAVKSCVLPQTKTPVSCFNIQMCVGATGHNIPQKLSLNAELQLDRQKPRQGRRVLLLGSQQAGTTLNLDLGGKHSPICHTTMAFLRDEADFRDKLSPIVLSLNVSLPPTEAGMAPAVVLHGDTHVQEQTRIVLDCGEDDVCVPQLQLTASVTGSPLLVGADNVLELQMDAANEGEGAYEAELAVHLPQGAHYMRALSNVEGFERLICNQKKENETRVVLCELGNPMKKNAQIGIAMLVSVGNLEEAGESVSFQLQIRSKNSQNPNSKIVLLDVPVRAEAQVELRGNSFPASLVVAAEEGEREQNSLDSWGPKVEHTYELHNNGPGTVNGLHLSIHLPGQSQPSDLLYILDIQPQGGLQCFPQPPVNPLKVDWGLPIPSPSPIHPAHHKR
# T1 sequence (P08514 891-1039 partner limits assumed): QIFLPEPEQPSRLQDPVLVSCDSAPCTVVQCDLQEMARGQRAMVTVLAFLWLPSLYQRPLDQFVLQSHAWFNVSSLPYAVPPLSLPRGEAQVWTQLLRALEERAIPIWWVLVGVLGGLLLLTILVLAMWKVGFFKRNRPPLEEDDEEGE
# T1 sequence (P05106 27-788): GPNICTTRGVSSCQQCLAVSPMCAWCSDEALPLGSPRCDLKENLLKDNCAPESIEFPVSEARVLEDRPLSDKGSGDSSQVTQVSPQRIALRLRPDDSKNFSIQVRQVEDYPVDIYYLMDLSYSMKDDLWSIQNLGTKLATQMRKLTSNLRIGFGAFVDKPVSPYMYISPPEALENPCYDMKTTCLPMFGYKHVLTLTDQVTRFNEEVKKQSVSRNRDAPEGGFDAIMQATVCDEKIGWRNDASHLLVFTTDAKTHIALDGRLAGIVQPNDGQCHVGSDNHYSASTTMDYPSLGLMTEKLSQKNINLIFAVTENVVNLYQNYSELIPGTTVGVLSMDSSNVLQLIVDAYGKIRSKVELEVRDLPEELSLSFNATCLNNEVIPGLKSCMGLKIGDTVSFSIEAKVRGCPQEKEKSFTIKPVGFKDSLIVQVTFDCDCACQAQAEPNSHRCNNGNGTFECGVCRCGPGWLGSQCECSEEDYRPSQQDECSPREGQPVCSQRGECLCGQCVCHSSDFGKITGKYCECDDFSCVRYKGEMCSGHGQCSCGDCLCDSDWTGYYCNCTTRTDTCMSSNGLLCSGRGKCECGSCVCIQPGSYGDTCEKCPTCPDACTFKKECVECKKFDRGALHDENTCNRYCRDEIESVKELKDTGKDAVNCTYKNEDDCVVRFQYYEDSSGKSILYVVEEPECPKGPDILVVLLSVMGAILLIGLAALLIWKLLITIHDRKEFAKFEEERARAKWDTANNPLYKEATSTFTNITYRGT
row,IC50 [nM],SMILES
1,27,"N=C(N)c1ccc(C(=O)N2CCCC(C(=O)NCCC(=O)O)C2)cc1 (racemic) [Example 7, rac-N-[[1-(p-amidinobenzoyl)-3-piperi-dinyl]carbonyl]-β-alanine]"
2,22,"N=C(N)c1ccc(C(=O)NC(CC(=O)NCCC(=O)O)c2ccccc2)cc1 (racemic) [Example 10, N-[(DL)-N-(p-amidinobenzoyl)-3-phenyl-β-alanyl]-β-alanine]"
3,0.3,"N=C(N)c1ccc(C(=O)NCCC(=O)N[C@@H](CC(=O)O)C(=O)N[C@@H](Cc2ccccc2)C(=O)O)cc1 [Example 1, N-[N-[N-(p-amidinobenzoyl)-β-alanyl]-L-α-aspartyl]-3-phenyl-L-alanine]"
4,130,"N=C(N)N1CCC(C(=O)NCCC(=O)N[C@@H](CC(=O)O)C(=O)N[C@@H](Cc2ccccc2)C(=O)O)CC1 [Example 2, N-[N-[N-(1-amidino-4-piperidinylcarbonyl)-β-alanyl]-L-α-aspartyl]-3-phenyl-L-alanine]"
5,45,"N=C(N)c1ccc(CC(=O)NCCC(=O)N[C@@H](CC(=O)O)C(=O)N[C@@H](Cc2ccccc2)C(=O)O)cc1 [Example 3, N-[N-[N-(p-amidinophenylacetyl)-β-alanyl]-L-α-aspartyl]-3-phenyl-L-alanine]"
6,35,"N=C(N)c1ccc(NC(=O)CCCC(=O)N[C@@H](CC(=O)O)C(=O)N[C@@H](Cc2ccccc2)C(=O)O)cc1 [Example 4, N-[N-[4-(p-amidinophenylcarbamoyl)butyryl]-L-α-aspartyl]-3-phenyl-L-alanine]"
7,10,"N=C(N)c1ccc(CCNC(=O)CC(=O)N[C@@H](CC(=O)O)C(=O)N[C@@H](Cc2ccccc2)C(=O)O)cc1 [Example 5, N-[N-[(p-amidinophenethylcarbamoyl)acetyl]-L-α-aspartyl]-3-phenyl-L-alanine]"
8,10,"CC(C)[C@H](NC(=O)[C@H](CC(=O)O)NC(=O)CCCNC(=O)c1ccc(C(=N)N)cc1)C(=O)O [Example 6, N-[N-[4-(p-amidinobenzamido)butyryl]-L-α-aspartyl]-L-valine]"
9,100,"N=C(N)c1ccc(C(=O)NCCCC(=O)NCCC(=O)O)cc1 [Example 8, N-[4-(p-amidinobenzamido)butyryl]-β-alanine]"
10,5,"N=C(N)c1ccc(C(=O)NCCC(=O)NCCC(=O)O)cc1 [Example 9, N-[N-(p-amidino-benzoyl)-β-alanyl]-β-alanine]"
11,2.5,"N=C(N)c1ccc(C(=O)NCCCCC(=O)N[C@@H](CC(=O)O)C(=O)N[C@@H](Cc2ccccc2)C(=O)O)cc1 [Example 11, N-[N-[5-(p-amidinobenzamido)valeryl]-L-α-aspartyl]-3-phenyl-L-alanine]"
12,10,"CC(C)C[C@H](NC(=O)[C@H](CC(=O)O)NC(=O)CCNC(=O)c1ccc(C(=N)N)cc1)C(=O)OC(C)C [Example 18, N-[N-[N-(p-amidino-benzoyl)-β-alanyl]-L-α-aspartyl]-L-leucine isopropyl ester]"
13,6.7,"CC(C)COC(=O)[C@H](CC(=O)O)NC(=O)CCCCNC(=O)c1ccc(C(=N)N)cc1 [Example 25, isobutyl N-[5-(p-amidinobenzamido)valeryl]-L-α-aspartate]"
14,5,"CCOC(=O)[C@H](CO)NC(=O)[C@H](CC(=O)O)NC(=O)CCNC(=O)c1ccc(C(=N)N)cc1 [Example 28, N-[N-[N-(p-amidinobenzoyl)-β-alanyl]-L-α-aspartyl]-L-serine ethyl ester]"
15,12.8,"N=C(N)c1ccc(C(=O)N2CC[C@@H](C(=O)N[C@@H](CC(=O)O)C(=O)N[C@@H](Cc3ccccc3)C(=O)O)C2)cc1 [Example 31, N-[N-[[(R)-1-(p-amidinobenzoyl)-3-pyrrolidinyl]carbonyl]-L-α-aspartyl]-3-phenyl-L-alanine]"
16,3.6,"CC(C)[C@H](NC(=O)[C@H](CC(=O)O)NC(=O)CCNC(=O)c1ccc(C(=N)N)cc1)C(=O)O [Example 38, N-[N-[N-(p-amidinobenzoyl)-β-alanyl]-L-α-aspartyl]-L-valine]"
17,1.2,N=C(N)c1ccc(C(=O)NCCC(=O)N[C@@H](CC(=O)O)C(=O)N[C@@H](Cc2ccc(O)cc2)C(=O)O)cc1 [Example 39]
